One series deals with Leukemia L1210. In words: Activity against Leukemia L1210, intraperitoneal, increase in life span of mice. The class given is in vivo, female mice (BDF1 family). Particulars: for ED (maximum ILS) / ED30: Mus musculus, L1210, ip, ip once a day for 5 successive days; for ED (maximum ILS): daily dosage giving maximum increase of life span, read-out: O.D. (optimum dosage); for ED30: daily dosage increasing average survival days by 30%, read-out: ILS30; for Survivors after 60 days / Max. ILS % / Therapeutic ratio TR: ip; for Survivors after 60 days: 6-membered group; for Max. ILS %: 60-day observation, versus control; for Therapeutic ratio TR: O.D./ILS30. Put shortly: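 Female BDF1 mice (20 to 23 g; 6 per group) were implanted intraperitoneally with 1×10^5 L1210 cells, then dosed ip or orally once daily for 5 days starting 24 h later. Survival was followed over 60 days, and ILS% was derived from mean survival days versus untreated controls.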

A further series relates to Ehrlich acites carcinoma. In words: Growth-inhibiting effect against Ehrlich acites carcinoma. The class given is in vivo, male mice. Particulars: Mus musculus, Ehrlich, 120 h, 5 days; for response vs control in vivo at 25 mg/kg: 25 mg/kg/day ip; for response vs control in vivo at 100 mg/kg: 100 mg/kg/day ip; for response vs control in vivo at 50 mg/kg: 50 mg/kg/day ip; for response vs control in vivo at 200 mg/kg: 200 mg/kg/day ip. How it is done:
Ehrlich acites carcinoma (1×10^7 cells) was implantated into the abdominal cavities of a 6-membered group of male mice. Test compounds (solutions or suspensions in 1% Nikohl HCO-60) were each intraperioneally administered once a day 5 successive days to the mice 24 hrs. after the implantation. Total packed cell volumes [TPCV, namely, total packed volumes of Acites carcinoma] were determined 7 days after the implantation to calculate growth ratio of tumor [T/C%; T: packed volume of Acites carcinoma in treated groups, C: packed volume of Acites carcinoma in an untreated group]. Acitivity is represented by - when T/C% is 100-66, by + when T/C% 65-41, by ++ when T/C% 40-11, and by +++ when T/C% 10-0.

Series [1] is described as follows: Acute toxicity (LD50, Behrens-Karber method). The class given is in vivo, ICR mice. The conditions noted are these: mouse, in vivo, ip, mortality during 30 days. How it is done:
Test compounds, dissolved or suspended in 0.5% aqueous CMC, were each intraperitoneally administered to ICR mice in a dose of 0.1 ml per 10 g body weight. LD50 (mg/kg) value of each test compound was calculated from the mortality of mice during 30 days by the Behrens-Karber method.

These results are taken from patent US4593090A, “Novel nitrosourea compounds, method for preparing same, and pharmaceutical composition containing same” (Gogo Kimura, priority 1981, dated 1986).

Molecules are shown by their SMILES. Read-outs that look alike come from different tables or passages of the source.

The LD50 is the dose expected to kill half of the subjects tested.

Regarding `CCOCCN(C[C@H]1O[C@H](OC2CCCCC2)[C@H](O)[C@@H](O)[C@@H]1O)C(=O)N(CCCl)N=O` [Compound 40, 3-(2-ethoxyethyl)-3-(cyclohexyl α-D-glucopyranose-6-yl)-1-(2-chloroethyl)-1-nitrosourea], in the series on Leukemia L1210, the ED (maximum ILS) worked out at 170 mg/kg, the ED30 came to 2.66 mg/kg, the “Survivors after 60 days” value is 6/6 and the “Max. ILS %” value is > 700%. Besides, the “Therapeutic ratio TR” value in the series with Leukemia L1210 is recorded as 63.9. Besides, in the series with Ehrlich acites carcinoma (read-out: Activity), the response vs control in vivo at 25 mg/kg lay within 0 to 10% and the response vs control in vivo at 100 mg/kg was 0 to 10%. For the same compound, in the series with Ehrlich acites carcinoma (read-out: T/C %), the response vs control in vivo at 25 mg/kg amounted to 0% and the response vs control in vivo at 100 mg/kg turned out to be 0%. Further, in series [1], the LD50 at 720 h came to 545 mg/kg.
`COC(C)CN(C[C@H]1O[C@H](OC2CCCCC2)[C@H](O)[C@@H](O)[C@@H]1O)C(=O)N(CCCl)N=O` (stereo partly drawn) [Compound 41, 3-(2-methoxy-n-propyl)-3-(cyclohexyl α-D-glucopyranose-6-yl)-1-(2-chloroethyl)-1-nitrosourea]: in the series on Leukemia L1210, the ED (maximum ILS) turned out to be 180 mg/kg, the ED30 was 2.72 mg/kg, the “Survivors after 60 days” value is listed as 6/6 and the “Max. ILS %” value is > 700%. The “Therapeutic ratio TR” value with Leukemia L1210 stood at 66.2. For the same compound, in the series on Ehrlich acites carcinoma (read-out: Activity), the response vs control in vivo at 25 mg/kg lay within 0 to 10% and the response vs control in vivo at 100 mg/kg was 0 to 10%. In the series on Ehrlich acites carcinoma (read-out: T/C %), the response vs control in vivo at 25 mg/kg was determined as 0% and the response vs control in vivo at 100 mg/kg came out at 0%. Also, in series [1], the LD50 at 720 h was 580 mg/kg.
On to `O=NN(CCCl)C(=O)N(CC1CCCO1)C[C@H]1O[C@H](OC2CCCCC2)[C@H](O)[C@@H](O)[C@@H]1O` (stereo partly drawn) [Compound 50, 3-tetrahydrofurfuryl-3-(cyclohexyl α-D-glucopyranose-6-yl)-1-(2-chloroethyl)-1-nitrosourea], for which, in the series with Leukemia L1210, the ED (maximum ILS) was 150 mg/kg, the ED30 is 2.31 mg/kg, the “Survivors after 60 days” value was 6/6 and the “Max. ILS %” value is > 700%. For the same compound, the “Therapeutic ratio TR” value with Leukemia L1210 came to 64.9. Further, in the series with Ehrlich acites carcinoma (read-out: Activity), the response vs control in vivo at 25 mg/kg fell in the range of 0 to 10% and the response vs control in vivo at 100 mg/kg was in the range of 0 to 10%. In the series with Ehrlich acites carcinoma (read-out: T/C %), the response vs control in vivo at 25 mg/kg was found to be 0% and the response vs control in vivo at 100 mg/kg was 0%. This compound also had an LD50 at 720 h in series [1] of 450 mg/kg.
For `COc1cccc(CO[C@H]2O[C@H](CN(CC(C)C)C(=O)N(CCCl)N=O)[C@@H](O)[C@H](O)[C@H]2O)c1OC` [Compound 52, 3-isobutyl-3-(2,3-dimethoxybenzyl α-D-glucopyranose-6-yl)-1-(2-chloroethyl)-1-nitrosourea], in the series on Leukemia L1210, the ED (maximum ILS) is 120 mg/kg, the ED30 stood at 3.62 mg/kg, the “Survivors after 60 days” value was 4/6 and the “Max. ILS %” value is > 420%. The “Therapeutic ratio TR” value in the series with Leukemia L1210 was found to be 33.1. Besides, in the series with Ehrlich acites carcinoma (read-out: Activity), the response vs control in vivo at 25 mg/kg lay in the range of 0 to 10% and the response vs control in vivo at 100 mg/kg lay within 0 to 10%. For the same compound, in the series with Ehrlich acites carcinoma (read-out: T/C %), the response vs control in vivo at 25 mg/kg amounted to 0% and the response vs control in vivo at 100 mg/kg turned out to be 0%. The compound further yielded an LD50 at 720 h in series [1] of 360 mg/kg.
In the case of `CCCCOC1OC(CO)C(O)C(O)C1N(CC1CCCO1)C(=O)N(CCCl)N=O` [Compound 63, 3-tetrahydrofurfuryl-3-(n-butyl α-D-glucopyranose-2-yl)-1-(2-chloroethyl)-1-nitrosourea], in the series on Leukemia L1210, the ED (maximum ILS) was 190 mg/kg, the ED30 amounted to 5.31 mg/kg, the “Survivors after 60 days” value is reported as 3/6 and the “Max. ILS %” value was > 350%. The “Therapeutic ratio TR” value in the series with Leukemia L1210 was determined as 35.8. Besides, in the series with Ehrlich acites carcinoma (read-out: Activity), the response vs control in vivo at 25 mg/kg lay within 0 to 10% and the response vs control in vivo at 100 mg/kg was in the range of 0 to 10%. In the series with Ehrlich acites carcinoma (read-out: T/C %), the response vs control in vivo at 25 mg/kg came out at 0% and the response vs control in vivo at 100 mg/kg stood at 0%. This compound came in with a 50% lethal dose (LD50) at 720 h in series [1] of 595 mg/kg.
For the compound `CCCCOC1OC(CO)C(O)C(N(CCCOC)C(=O)N(CCCl)N=O)C1O` [Compound 82, 3-(3-methoxy-n-propyl)-3-(n-butyl α-D-glucopyranose-3-yl)-1-(2-chloroethyl)-1-nitrosourea], in the series on Leukemia L1210, the ED (maximum ILS) was determined as 200 mg/kg, the ED30 was 5.5 mg/kg, the “Survivors after 60 days” value is reported as 3/6 and the “Max. ILS %” value was > 345%. Moreover, in the series on Leukemia L1210, the “Therapeutic ratio TR” value is recorded as 30.4. In the series on Ehrlich acites carcinoma (read-out: Activity), the response vs control in vivo at 25 mg/kg lay in the range of 0 to 10% and the response vs control in vivo at 100 mg/kg lay in the range of 0 to 10%. In the series with Ehrlich acites carcinoma (read-out: T/C %), the response vs control in vivo at 25 mg/kg came out at 0% and the response vs control in vivo at 100 mg/kg amounted to 0%. Moreover, in series [1], the LD50 at 720 h is 655 mg/kg.
For the compound `COCC(C)N(C(=O)N(CCCl)N=O)C1C(CO)OC(OCC(C)C)C(O)C1O` [Compound 94, 3-(1-methyl-2-methoxyethyl)-3-(isobutyl α-D-glucopyranose-4-yl)-1-(2-chloroethyl)-1-nitrosourea], in the series on Leukemia L1210, the ED (maximum ILS) was 160 mg/kg, the ED30 was found to be 4.43 mg/kg, the “Survivors after 60 days” value is 3/6 and the “Max. ILS %” value is > 360%. Moreover, the “Therapeutic ratio TR” value in the series on Leukemia L1210 is 36.1. Moreover, in the series with Ehrlich acites carcinoma (read-out: Activity), the response vs control in vivo at 25 mg/kg was in the range of 0 to 10% and the response vs control in vivo at 100 mg/kg was in the range of 0 to 10%. In the series with Ehrlich acites carcinoma (read-out: T/C %), the response vs control in vivo at 25 mg/kg worked out at 0% and the response vs control in vivo at 100 mg/kg stood at 0%. For the same compound, in series [1], the LD50 at 720 h worked out at 520 mg/kg.
For the compound `CCCCO[C@H]1O[C@H](CN(C)C(=O)N(CCCl)N=O)[C@H](O)[C@H](O)[C@H]1O` [Compound 105, 3-methyl-3-(n-butyl α-D-galactopyranose-6-yl)-1-(2-chloroethyl)-1-nitrosourea], in the series with Leukemia L1210, the ED (maximum ILS) is 130 mg/kg, the ED30 worked out at 3.59 mg/kg, the “Survivors after 60 days” value was 3/6 and the “Max. ILS %” value is recorded as > 320%. Further, the “Therapeutic ratio TR” value in the series with Leukemia L1210 came to 36.2. In the series on Ehrlich acites carcinoma (read-out: Activity), the response vs control in vivo at 50 mg/kg is 0 to 10% and the response vs control in vivo at 200 mg/kg fell in the range of 0 to 10%. For the same compound, in the series on Ehrlich acites carcinoma (read-out: T/C %), the response vs control in vivo at 50 mg/kg worked out at 5.7% and the response vs control in vivo at 200 mg/kg amounted to 0%. For the same compound, in series [1], the LD50 at 720 h amounted to 320 mg/kg.
With `CCN(C[C@H]1O[C@H](OCC(C)C)[C@H](O)[C@@H](O)[C@H]1O)C(=O)N(CCCl)N=O` [Compound 108, 3-ethyl-3-(isobutyl α-D-galactopyranose-6-yl)-1-(2-chloroethyl)-1-nitrosourea], in the series with Leukemia L1210, the ED (maximum ILS) worked out at 130 mg/kg, the ED30 came out at 4.24 mg/kg, the “Survivors after 60 days” value is 3/6 and the “Max. ILS %” value is > 320%. For the same compound, in the series on Leukemia L1210, the “Therapeutic ratio TR” value was 30.7. Also, in the series on Ehrlich acites carcinoma (read-out: Activity), the response vs control in vivo at 50 mg/kg was 0 to 10% and the response vs control in vivo at 200 mg/kg fell in the range of 0 to 10%. In the series with Ehrlich acites carcinoma (read-out: T/C %), the response vs control in vivo at 50 mg/kg turned out to be 7.8% and the response vs control in vivo at 200 mg/kg amounted to 0%. This compound gave an LD50 at 720 h in series [1] of 390 mg/kg.
For `CCOCCN(C[C@H]1O[C@H](OCC(C)C)[C@H](O)[C@@H](O)[C@H]1O)C(=O)N(CCCl)N=O` [Compound 109, 3-(2-ethoxyethyl)-3-(isobutyl α-D-galactopyranose-6-yl)-1-(2-chloroethyl)-1-nitrosourea], in the series with Leukemia L1210, the ED (maximum ILS) was 200 mg/kg, the ED30 amounted to 3.74 mg/kg, the “Survivors after 60 days” value was 4/6 and the “Max. ILS %” value is > 430%. The “Therapeutic ratio TR” value in the series on Leukemia L1210 was 53.5. In the series on Ehrlich acites carcinoma (read-out: Activity), the response vs control in vivo at 25 mg/kg is 0 to 10% and the response vs control in vivo at 100 mg/kg is 0 to 10%. In the series on Ehrlich acites carcinoma (read-out: T/C %), the response vs control in vivo at 25 mg/kg was 0% and the response vs control in vivo at 100 mg/kg was determined as 0%. This compound showed an LD50 at 720 h in series [1] of 655 mg/kg.
On to `CCC(C)N(C[C@H]1O[C@H](OCCOCOC)[C@H](O)[C@@H](O)[C@H]1O)C(=O)N(CCCl)N=O` (some centres unmarked) [Compound 115], for which, in the series with Leukemia L1210, the ED (maximum ILS) came out at 200 mg/kg, the ED30 is 3.2 mg/kg, the “Survivors after 60 days” value is on record as 6/6 and the “Max. ILS %” value is on record as > 700%. In the series with Leukemia L1210, the “Therapeutic ratio TR” value is 62.5. In the series with Ehrlich acites carcinoma (read-out: Activity), the response vs control in vivo at 25 mg/kg is 0 to 10% and the response vs control in vivo at 100 mg/kg was 0 to 10%. Besides, in the series with Ehrlich acites carcinoma (read-out: T/C %), the response vs control in vivo at 25 mg/kg came out at 0% and the response vs control in vivo at 100 mg/kg was 0%. In series [1], the LD50 at 720 h stood at 600 mg/kg.
